This is an account of results in patent US20130236481A1, “HETEROCYCLE -ARYL COMPOUNDS FOR INFLAMMATION AND IMMUNE-RELATED USES” (SYNTA PHARMACEUTICALS CORP., priority 2007, published 2013).

Where a name gives a salt, the structure may show the parent alone.

A word on the IC50: it is the point on the concentration scale where inhibition reaches its midpoint. Read a high IC50 as weaker potency in that assay.

One experiment concerns IL-2 production. The experiment in a line: Inhibition of IL-2 production in PHA-activated Jurkat cells (ELISA). The class given is cell-based. To be noted: Homo sapiens, Jurkat, 20 h, PHA 2.5 μg/mL, IL-2 ELISA. Here is the method:
Jurkat cells were placed in a 96 well plate (0.5 million cells per well in 1% FBS medium) then a test compound of this invention was added at different concentrations. After 10 minutes, the cells were activated with PHA (final concentration 2.5 μg/mL) and incubated for 20 hours at 37° C. under CO2. The final volume was 200 μL. Following incubation, the cells were centrifuged and the supernatants collected and stored at −70° C. prior to assaying for IL-2 production. A commercial ELISA kit (IL-2 Eli-pair, Diaclone Research, Besancon, France) was used to detect production of IL-2, from which dose response curves were obtained. The IC50 value was calculated as the concentration at which 50% of maximum IL-2 production after stimulation was inhibited versus a non-stimulation control.
For orientation: ELISA stands for enzyme-linked immunosorbent assay.
As for `Cc1cc(-c2ccno2)sc1-c1ccc(NC(=O)c2c(F)cccc2F)cc1` [Compound 1, 2,6-difluoro-N-(4-(5-(isoxazol-5-yl)-3-methylthiophen-2-yl)phenyl)benzamide], the midpoint of inhibition, the IC50, lay at 0.003 µM. `Cc1sc(-c2cncn2C)cc1-c1ccc(NC(=O)c2c(F)cccc2F)cc1` [Compound 23, 2,6-difluoro-N-(4-(2-methyl-5-(1-methyl-1H-imidazol-5-yl)thiophen-3-yl)phenyl)benzamide] gave an IC50 of 0.006 µM. Take `Cc1sc(-c2cnco2)cc1-c1ccc(NC(=O)c2c(F)cccc2F)cn1` [Compound 10, 2,6-difluoro-N-(6-(2-methyl-5-(oxazol-5-yl)thiophen-3-yl)pyridin-3-yl)benzamide]: the half-maximal inhibitory concentration (IC50) amounted to 0.031 µM. On the same count and under the same terms, with `Cc1sc(-c2cnc[nH]2)cc1-c1ccc(NC(=O)c2c(F)cccc2F)cc1` [Compound 11, N-(4-(5-(1H-imidazol-5-yl)-2-methylthiophen-3-yl)phenyl)-2,6-difluorobenzamide] the figure was 0.016 µM; with `Cc1sc(-c2cnco2)cc1-c1cnc(NC(=O)c2c(F)cccc2F)cn1` [Compound 4, 2,6-difluoro-N-(5-(2-methyl-5-(oxazol-5-yl)thiophen-3-yl)pyrazin-2-yl)benzamide], 0.015 µM; with `Cc1cc(-c2nccs2)sc1-c1ccc(NC(=O)c2c(F)cccc2F)cc1` [Compound 2, 2,6-difluoro-N-(4-(3-methyl-5-(thiazol-2-yl)thiophen-2-yl)phenyl)benzamide], 0.007 µM. Same read-out and setting: with `COc1ncc(Cl)cc1-c1cc(-c2ccc(NC(=O)c3c(F)cccc3F)cc2)c(C)s1` [Compound 13, N-(4-(5-(5-chloro-2-methoxypyridin-3-yl)-2-methylthiophen-3-yl)phenyl)-2,6-difluorobenzamide] the figure was 0.073 µM. `Cc1sc(-c2nccs2)cc1-c1ccc(NC(=O)c2c(F)cccc2F)cc1` [Compound 8, 2,6-difluoro-N-(4-(2-methyl-5-(thiazol-2-yl)thiophen-3-yl)phenyl)benzamide] returned an IC50 of 0.006 µM.

With `Cc1sc(-c2cnccc2Cl)cc1-c1ccc(NC(=O)c2c(F)cccc2F)cc1` [Compound 19, N-(4-(5-(4-chloropyridin-3-yl)-2-methylthiophen-3-yl)phenyl)-2,6-difluorobenzamide], inhibition was half-maximal at 0.003 µM (IC50). Still for that read-out and setting: with `Cc1sc(-c2nccs2)cc1-c1cnc(NC(=O)c2c(F)cccc2F)cn1` [Compound 15, 2,6-difluoro-N-(5-(2-methyl-5-(thiazol-2-yl)thiophen-3-yl)pyrazin-2-yl)benzamide] the figure was 0.01 µM; with `Cc1sc(-c2cncn2C)cc1-c1ccc(NC(=O)c2c(F)cccc2F)nc1` [Compound 17, 2,6-difluoro-N-(5-(2-methyl-5-(1-methyl-1H-imidazol-5-yl)thiophen-3-yl)pyridin-2-yl)benzamide], 0.025 µM; with `Cc1cc(-c2cccnc2)sc1-c1ccc(NC(=O)c2c(F)cccc2F)cc1` [Compound 6, 2,6-difluoro-N-(4-(3-methyl-5-(pyridin-3-yl)thiophen-2-yl)phenyl)benzamide], 0.002 µM. The compound `COc1ccncc1-c1cc(-c2ccc(NC(=O)c3c(F)cccc3F)cc2)c(C)s1` [Compound 20, 2,6-difluoro-N-(4-(5-(4-methoxypyridin-3-yl)-2-methylthiophen-3-yl)phenyl)benzamide] showed an IC50 of 0.019 µM. Consider `Cc1sc(-c2cccnc2)cc1-c1ccc(NC(=O)c2c(F)cccc2F)cc1` [Compound 7, 2,6-difluoro-N-(4-(2-methyl-5-(pyridin-3-yl)thiophen-3-yl)phenyl)benzamide], for which the IC50 was determined as 0.003 µM.

In the case of `Cc1sc(-c2cnc[nH]2)cc1-c1cnc(NC(=O)c2c(F)cccc2F)cn1` [Compound 22, N-(5-(5-(1H-imidazol-5-yl)-2-methylthiophen-3-yl)pyrazin-2-yl)-2,6-difluorobenzamide], it took 0.152 µM to reach half-maximal inhibition (IC50). `Cc1sc(-c2cnc[nH]2)cc1-c1ccc(NC(=O)c2c(F)cccc2F)nc1` [Compound 16, N-(5-(5-(1H-imidazol-5-yl)-2-methylthiophen-3-yl)pyridin-2-yl)-2,6-difluorobenzamide] displayed an IC50 of 0.05 µM. In turn, `Cc1sc(-c2nnco2)cc1-c1ccc(NC(=O)c2c(F)cccc2F)cc1` [Compound 9, 2,6-difluoro-N-(4-(2-methyl-5-(1,3,4-oxadiazol-2-yl)thiophen-3-yl)phenyl)benzamide] returned an IC50 of 0.009 µM. As for `Cc1cc(-c2cncn2C)sc1-c1ccc(NC(=O)c2c(F)cccc2F)cc1` [Compound 3, 2,6-difluoro-N-(4-(3-methyl-5-(1-methyl-1H-imidazol-5-yl)thiophen-2-yl)phenyl)benzamide], the IC50 was determined as 0.008 µM. In turn, `Cc1cnccc1C(=O)Nc1ccc(-c2cc(-c3cnco3)sc2C)cn1` [Compound 18, 3-methyl-N-(5-(2-methyl-5-(oxazol-5-yl)thiophen-3-yl)pyridin-2-yl)isonicotinamide] registered an IC50 of 0.017 µM. Compound `Cc1sc(-c2nccs2)cc1-c1ccc(NC(=O)c2c(F)cccc2F)nc1` [Compound 14, 2,6-difluoro-N-(5-(2-methyl-5-(thiazol-2-yl)thiophen-3-yl)pyridin-2-yl)benzamide] yielded an IC50 of 0.008 µM. `Cc1sc(-c2cncn2C)cc1-c1cnc(NC(=O)c2c(F)cccc2F)cn1` [Compound 21, 2,6-difluoro-N-(5-(2-methyl-5-(1-methyl-1H-imidazol-5-yl)thiophen-3-yl)pyrazin-2-yl)benzamide] yielded an IC50 of 0.027 µM. Turning to `CCn1cncc1-c1cc(-c2ccc(NC(=O)c3c(F)cccc3F)cc2)c(C)s1` [Compound 25, N-(4-(5-(1-ethyl-1H-imidazol-5-yl)-2-methylthiophen-3-yl)phenyl)-2,6-difluorobenzamide], half-maximal inhibition (IC50) required 0.027 µM. Same read-out and setting: with `Cc1sc(-c2cnco2)cc1-c1ccc(NC(=O)c2c(F)cccc2F)nc1` [Compound 5, 2,6-difluoro-N-(5-(2-methyl-5-(oxazol-5-yl)thiophen-3-yl)pyridin-2-yl)benzamide] the figure was 0.01 µM. `Cc1ccncc1-c1cc(-c2ccc(NC(=O)c3c(F)cccc3F)cc2)c(C)s1` [Compound 12, 2,6-difluoro-N-(4-(2-methyl-5-(4-methylpyridin-3-yl)thiophen-3-yl)phenyl)benzamide] registered an IC50 of 0.009 µM.

Staying with this experiment, now noted: PHA 2.5 μg/mL, 20 hours, IL-2 ELISA, hydrochloride.
`Cc1sc(-c2cncn2C)cc1-c1ccc(NC(=O)c2c(F)cccc2F)cc1` [Compound 24, 2,6-difluoro-N-(4-(2-methyl-5-(1-methyl-1H-imidazol-5-yl)thiophen-3-yl)phenyl)benzamide hydrochloride]: inhibition was half-maximal at 0.003 µM (IC50).
